Where two headings read alike, the source gives them in different places.
Assays:
[1] = system: exsheathed third-stage larvae (xL3s) of H. contortus; assay: xL3 motility assay (whole-organism screen and dose-response); type: cell-based, Haemonchus contortus
Experimental: The selenophene and thiophene-core ligands (n = 74) (Additional file 1) were screened at a concentration of 20 μM on exsheathed third-stage larvae (xL3s) of H. contortus in 96-well microculture plates (cat. no. 3635; Corning 3650, Life Sciences, Corning, USA) using relevant control compounds (i.e. moxidectin and monepantel), as described previously. In brief, compounds were dissolved to a stock concentration of 10 mM in either dimethyl sulfoxide (DMSO) or methanol (Sigma-Adrich Scientific, St. Louis, USA). These ligands were then individually diluted to the final concentration of 20 μM using Luria Bertani medium (LB) supplemented with 100 IU/ml of penicillin, 100 μg/ml of streptomycin and 2.5 μg/ml of amphotericin (LB*). Compounds were dispensed (in triplicate) into the wells of a 96-well microculture plate using a multichannel pipette. In addition, the negative controls (LB*, LB* + 0.5 % solvent; six wells each), and positive controls (20 μM of monepantel; Zolvix, Novartis Animal Health, Basel, Switzerland and 20 μM of moxidectin; Cydectin, Virbac, Carros, France; triplicate wells) and xL3s (~300/well) were dispensed into wells of the plate using an automated multichannel pipette (Viaflo Assist/II, Integra Biosciences, Zizers, Switzerland). […], a video recording (5 s) was taken of each well of the 96-well microculture plate (containing xL3s) using a greyscale camera (Rolera Bolt CMOS, Qimaging Scientific, Surrey, Canada) and a motorised X-Y axis stage (BioPoint 2, Ludl Electronics Products, Hawthorne, USA). Individual videos were processed to calculate a motility index (MI) using an algorithm described previously. MIs were normalised to the negative and positive controls (to remove plate-to-plate variation) using the program Prism (v.6 GraphPad Software, USA). Z’-scores were calculated to validate the performance of the screening assay; reliable assays achieve Z’-scores of between 0.5 and 1 [28]. A compound was recorded as having an activity if it reduced xL3 motility by ≥ 70 % following incubation for 72 h. […] Compounds that reduced the motility of xL3s were also tested for their ability to inhibit the motility of L4s (same protocol as for xL3s) and/or to affect the development of xL3s to L4s. Following the measurement of L4 motility, larvae were re-incubated for 4 more days and fixed with 1 % iodine (50 μl). Then, L4 development was assessed based on the presence of a well-developed mouth/pharynx using a light microscope and expressed as a percentage of the total number of larvae examined (n = 30).
(§1) All assays (to assess xL3 motility, L4 development and L4 motility) were performed in triplicate, three times, on separate days.

[2] = system: development of xL3s to L4s of H. contortus; assay: L4 development assay (xL3 to L4); type: cell-based; settings: Haemonchus contortus, 168 h, read-out: L4 development (IC50s in μM)
Experimental: The selenophene and thiophene-core ligands (n = 74) (Additional file 1) were screened at a concentration of 20 μM on exsheathed third-stage larvae (xL3s) of H. contortus in 96-well microculture plates (cat. no. 3635; Corning 3650, Life Sciences, Corning, USA) using relevant control compounds (i.e. moxidectin and monepantel), as described previously. In brief, compounds were dissolved to a stock concentration of 10 mM in either dimethyl sulfoxide (DMSO) or methanol (Sigma-Adrich Scientific, St. Louis, USA). These ligands were then individually diluted to the final concentration of 20 μM using Luria Bertani medium (LB) supplemented with 100 IU/ml of penicillin, 100 μg/ml of streptomycin and 2.5 μg/ml of amphotericin (LB*). Compounds were dispensed (in triplicate) into the wells of a 96-well microculture plate using a multichannel pipette. In addition, the negative controls (LB*, LB* + 0.5 % solvent; six wells each), and positive controls (20 μM of monepantel; Zolvix, Novartis Animal Health, Basel, Switzerland and 20 μM of moxidectin; Cydectin, Virbac, Carros, France; triplicate wells) and xL3s (~300/well) were dispensed into wells of the plate using an automated multichannel pipette (Viaflo Assist/II, Integra Biosciences, Zizers, Switzerland). Following a 72 h incubation at 38 °C and 10 % CO2, a video recording (5 s) was taken of each well of the 96-well microculture plate (containing xL3s) using a greyscale camera (Rolera Bolt CMOS, Qimaging Scientific, Surrey, Canada) and a motorised X-Y axis stage (BioPoint 2, Ludl Electronics Products, Hawthorne, USA). Individual videos were processed to calculate a motility index (MI) using an algorithm described previously. MIs were normalised to the negative and positive controls (to remove plate-to-plate variation) using the program Prism (v.6 GraphPad Software, USA). Z’-scores were calculated to validate the performance of the screening assay; reliable assays achieve Z’-scores of between 0.5 and 1 [28]. A compound was recorded as having an activity if it reduced xL3 motility by ≥ 70 % following incubation for 72 h. […] Compounds that reduced the motility of xL3s were also tested for their ability to inhibit the motility of L4s (same protocol as for xL3s) and/or to affect the development of xL3s to L4s. Following the measurement of L4 motility, larvae were re-incubated for 4 more days and fixed with 1 % iodine (50 μl). Then, L4 development was assessed based on the presence of a well-developed mouth/pharynx using a light microscope and expressed as a percentage of the total number of larvae examined (n = 30).
as §1

[3] = Haemonchus contortus, 24 h; read-out: xL3 motility (IC50s in μM)
[4] = Haemonchus contortus, 48 h; read-out: xL3 motility (IC50s in μM)
[5] = Haemonchus contortus, 72 h, 20 μM, 72 h; percent of motility compared with controls; mean of triplicate ± SEM; read-out: xL3 Motility Index(%)
[6] = Haemonchus contortus, 72 h; read-out: xL3 motility (IC50s in μM)
[7] = Haemonchus contortus; 20 μM, 72 h; read-out: inhibition of xL3 motility in the primary screen

SMILES | IC50 [1, 3] | IC50 [1, 4] | activity at 20 µM [1, 5] | IC50 [1, 6] | inhibition at 20 µM [1, 7] | IC50 ([1]; Haemonchus contortus; read-out: xL3 motility IC50 at both 48 h and 72 h) | IC50 ([2]; 7 days) | IC50 ([1]; Haemonchus contortus, 24 h, read-out: xL3 motility (IC50s in μM)) | IC50 ([1]; Haemonchus contortus, 48 h, read-out: xL3 motility (IC50s in μM)) | inhibition at 20 µM ([1]; Haemonchus contortus, 72 h, read-out: inhibition of xL3 motility in the primary screen) | activity at 20 µM ([1]; Haemonchus contortus, 72 h, read-out: xL3 Motility Index(%), 20 μM, 72 h; percent of motility compared with controls; mean of triplicate ± SEM) | IC50 ([1]; Haemonchus contortus, 72 h, read-out: xL3 motility (IC50s in μM)) | IC50 [2]
Oc1ccc(-c2cscc2-c2ccc(O)cc2Cl)c(Cl)c1 [MJ-17] | 25.7 µM | 25.6 µM | 20.6 ± 4.9% | 23.8 µM | > 70% | 23.8 to 25.6 µM | 13.7 µM | – | – | – | – | – | –
Cc1cc(O)ccc1-c1ccc(-c2ccc(O)cc2F)s1 [MJ-22] | 6.6 µM | 7.2 µM | 6.7 ± 8.2% | 9.6 µM | > 70% | – | 10.5 µM | – | – | – | – | – | –
C[C@](C#N)(COc1cc(C#N)ccc1C(F)(F)F)NC(=O)c1ccc(SC(F)(F)F)cc1 [Monepantel, reference compound] | ~52.1 µM | 6 µM | – | 0.4 µM | – | – | 0.4 µM | – | – | – | – | – | –
CO/N=C1\C[C@]2(C[C@@H]3C[C@@H](C/C=C(\C)C[C@@H](C)/C=C/C=C4\CO[C@@H]5[C@H](O)C(C)=C[C@@H](C(=O)O3)[C@]45O)O2)O[C@H](/C(C)=C/C(C)C)[C@H]1C [Moxidectin, reference compound] | 2.5 µM | 2.5 µM | – | 2.3 µM | – | – | 12.3 µM | – | – | – | – | – | –
Oc1ccc(-c2ccc(-c3ccc(O)cc3Cl)[se]2)c(Cl)c1 [WZY-2] | – | – | – | – | – | – | – | 10 µM | 13 µM | > 70% | 12.3 ± 0.1% | 12.1 µM | 12.2 µM

Reference: paper PMC4910235, “Selenophene and thiophene-core estrogen receptor ligands that inhibit motility and development of parasitic stages of Haemonchus contortus” (Parasites & Vectors, 2016)
